Laboratory results reported in patent US11458123B2 (Arvinas, Inc., priority 2016, dated 2022).

system: tau protein; assay: Tau protein in vitro degradation assay (Western blot, Tau-13 antibody); assay type: cell-based, human; details: SK-N-SH cells; 72 hours of incubation; tested at 300 nM, 100 nM, 33 nM and 11 nM; Western blot, Tau-13 antibody
Outline: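 Tau degradation read by Tau-13 Western blot (detects all human tau forms) of SDS-PAGE-resolved lysates from SK-N-SH cells. Cells were plated at least 18 h before 72 h exposure to PROTACs at either 1000/300/100 nM or 300/100/33/11 nM.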

Row | Compound | Degradation activity (tau protein remaining; highest amount of degradation observed at any dosage)
1 | Cn1c2ccncc2c2ccc(-c3ccc(O[C@H]4C[C@H](OC5CCN(CC(F)(F)CCCOc6ccc7c(c6)C(=O)N(C6CCC(=O)NC6=O)C7=O)CC5)C4)nc3)cc21 (stereo partly shown) [Compound 171, 5-((4,4-difluoro-5-(4-((1r,3r)-3-((5-(5-methyl-5H-pyrido[4,3-b]indol-7-yl)pyridin-2-yl)oxy)cyclobutoxy)piperidin-1-yl)pentyl)oxy)-2-(2,6-dioxopiperidin-3-yl)isoindoline-1,3-dione] | C (>80% tau protein remaining after 72 hours of incubation with the test compound)
2 | O=C1CCC(N2C(=O)c3ccc(OCCCCC#Cc4ccc(O[C@H]5C[C@H](Oc6ccc(-c7ccc8c(c7)[nH]c7ccncc78)cn6)C5)cn4)cc3C2=O)C(=O)N1 (stereo partly shown) [Compound 172, 5-((6-(5-((1r,3r)-3-((5-(5H-pyrido[4,3-b]indol-7-yl)pyridin-2-yl)oxy)cyclobutoxy)pyridin-2-yl)hex-5-yn-1-yl)oxy)-2-(2,6-dioxopiperidin-3-yl)isoindoline-1,3-dione] | C (>80% tau protein remaining after 72 hours of incubation with the test compound)
3 | O=C1CCC(N2C(=O)c3ccc(OCCOCC#Cc4ccc(O[C@H]5C[C@H](Oc6ccc(-c7ccc8c(c7)[nH]c7ccncc78)cn6)C5)cn4)cc3C2=O)C(=O)N1 (stereo partly shown) [Compound 173, 5-(2-((3-(5-((1r,3r)-3-((5-(5H-pyrido[4,3-b]indol-7-yl)pyridin-2-yl)oxy)cyclobutoxy)pyridin-2-yl)prop-2-yn-1-yl)oxy)ethoxy)-2-(2,6-dioxopiperidin-3-yl)isoindoline-1,3-dione] | A (≤50% tau protein remaining after 72 hours of incubation with the test compound)
4 | Cn1c2ccncc2c2ccc(-c3ccc(OC4CN(C(=O)C56CC(COCCCCCOc7ccc8c(c7)C(=O)N(C7CCC(=O)NC7=O)C8=O)(C5)C6)C4)nc3)cc21 (stereo not shown) [Compound 175, 2-(2,6-dioxopiperidin-3-yl)-5-((5-((3-(3-((5-(5-methyl-5H-pyrido[4,3-b]indol-7-yl)pyridin-2-yl)oxy)azetidine-1-carbonyl)bicyclo[1.1.1]pentan-1-yl)methoxy)pentyl)oxy)isoindoline-1,3-dione] | C (>80% tau protein remaining after 72 hours of incubation with the test compound)
5 | Cn1c2ccncc2c2c(F)c(F)c(-c3ccc(O[C@H]4C[C@H](OCCCOCCCOC5CN(c6ccc7c(c6)C(=O)N(C6CCC(=O)NC6=O)C7=O)C5)C4)nc3)cc21 (stereo partly shown) [Compound 176, 5-(3-(3-(3-((1r,3r)-3-((5-(8,9-difluoro-5-methyl-5H-pyrido[4,3-b]indol-7-yl)pyridin-2-yl)oxy)cyclobutoxy)propoxy)propoxy)azetidin-1-yl)-2-(2,6-dioxopiperidin-3-yl)isoindoline-1,3-dione] | C (>80% tau protein remaining after 72 hours of incubation with the test compound)
6 | Cn1c2ccncc2c2ccc(-c3ccc(O[C@H]4C[C@H](OCCCOCCCOC5CN(c6ccc7c(c6)CN(C6CCC(=O)NC6=O)C7=O)C5)C4)nc3)cc21 (stereo partly shown) [Compound 177, 3-(5-(3-(3-(3-((1r,3r)-3-((5-(5-methyl-5H-pyrido[4,3-b]indol-7-yl)pyridin-2-yl)oxy)cyclobutoxy)propoxy)propoxy)azetidin-1-yl)-1-oxoisoindolin-2-yl)piperidine-2,6-dione] | A (≤50% tau protein remaining after 72 hours of incubation with the test compound)
7 | Cn1c2ccncc2c2ccc(-c3ccc(O[C@H]4C[C@H](OCCCCCCOCC5CN(c6ccc7c(c6)C(=O)N(C6CCC(=O)NC6=O)C7=O)C5)C4)nc3)cc21 (stereo partly shown) [Compound 178, 2-(2,6-dioxopiperidin-3-yl)-5-(3-(((6-((1r,3r)-3-((5-(5-methyl-5H-pyrido[4,3-b]indol-7-yl)pyridin-2-yl)oxy)cyclobutoxy)hexyl)oxy)methyl)azetidin-1-yl)isoindoline-1,3-dione] | A (≤50% tau protein remaining after 72 hours of incubation with the test compound)
